Results taken from ChEMBL document CHEMBL4130367, “Click chemistry-based synthesis and anticancer activity evaluation of novel C-14 1,2,3-triazole dehydroabietic acid hybrids” (Eur J Med Chem, 2017).

How the values were obtained:
[1] = tested on: PC-3; test: Cytotoxicity against human PC3 cells assessed as reduction in cell viability after 72 hrs by MTT assay; format: functional, cell-based; conditions: PC-3, 72 h
[2] = Octanol-water partition coefficient, log P of the compound; format: physicochemical
[3] = tested on: MDA-MB-231; test: Cytotoxicity against human MDA-MB-231 cells assessed as reduction in cell viability after 72 hrs by MTT assay; format: functional, cell-based; conditions: MDA-MB-231, 72 h
[4] = tested on: SK-OV-3; test: Cytotoxicity against human SKOV3 cells assessed as reduction in cell viability after 72 hrs by MTT assay; format: functional, cell-based; conditions: SK-OV-3, 72 h
[5] = tested on: MCF7; test: cells; conditions: Homo sapiens, MCF7, 72 h
Description: Cytotoxicity against human MCF7 cells assessed as reduction in cell viability after 72 hrs by MTT assay

[6] = tested on: NCI/ADR-RES; test: Growth inhibition of human MCF7/ADR cells after 72 hrs by MTT assay; format: functional, cell-based
[7] = tested on: NCI/ADR-RES; test: Growth inhibition of human MCF7/ADR cells at 2.5 to 5 uM after 72 hrs by MTT assay relative to control; format: functional

Row | Structure (SMILES) | IC50 [1] | logP [2] | IC50 [3] | IC50 [4] | IC50 [5] | growth inhibition (GI) [6] | growth inhibition (GI) [7]
1 | COC(=O)[C@]1(C)CCC[C@]2(C)c3ccc(C(C)C)c(NC(=O)Cn4cc(-c5cccnc5)nn4)c3CC[C@@H]12 | 30 µM | 4.13 | 41.9 µM | > 100 µM | > 100 µM |  | 
2 | COC(=O)[C@]1(C)CCC[C@]2(C)c3ccc(C(C)C)c(NC(=O)Cn4cc(-c5ccccc5OC)nn4)c3CC[C@@H]12 | 2.3 µM | 5.21 | 1.8 µM | 1.4 µM | 1 µM |  | 
3 | COC(=O)[C@]1(C)CCC[C@]2(C)c3ccc(C(C)C)c(NC(=O)Cn4cc(-c5ccc(-c6ccccc6)cc5)nn4)c3CC[C@@H]12 | 11.1 µM | 6.99 | 8.9 µM | 16 µM | 9.5 µM |  | 
4 | COC(=O)[C@]1(C)CCC[C@]2(C)c3ccc(C(C)C)c(NC(=O)Cn4cc(-c5cccc(OC)c5)nn4)c3CC[C@@H]12 | 1.1 µM | 5.23 | 1.4 µM | 0.9 µM | 0.8 µM | Dose-dependent effect | >50%
5 | COC(=O)[C@]1(C)CCC[C@]2(C)c3ccc(C(C)C)c(NC(=O)Cn4cc(Cc5ccccc5)nn4)c3CC[C@@H]12 | > 100 µM | 5.72 | 31.9 µM | 59.4 µM | > 100 µM |  | 
6 | COC(=O)c1nnn(CC(=O)Nc2c(C(C)C)ccc3c2CC[C@H]2[C@](C)(C(=O)OC)CCC[C@]32C)c1C(=O)OC | 49 µM | 3.67 | 8.2 µM | 25.3 µM | 15.6 µM |  | 
7 | COC(=O)[C@]1(C)CCC[C@]2(C)c3ccc(C(C)C)c(NC(=O)CN=[N+]=[N-])c3CC[C@@H]12 | > 100 µM |  | 60.7 µM | > 100 µM | 52.1 µM |  | 
8 | COC(=O)[C@]1(C)CCC[C@]2(C)c3ccc(C(C)C)c(N)c3CC[C@@H]12 | 25.4 µM |  | 24.1 µM | 6.1 µM | 31.1 µM |  | 
9 | COC(=O)[C@]1(C)CCC[C@]2(C)c3ccc(C(C)C)c(NC(=O)Cn4cc(CNc5nc(Cl)nc(Cl)n5)nn4)c3CC[C@@H]12 | > 100 µM | 5.12 | > 100 µM | 92.1 µM | > 100 µM |  | 
10 | COC(=O)[C@]1(C)CCC[C@]2(C)c3ccc(C(C)C)c(NC(=O)Cn4cc(-c5ccc(F)cc5)nn4)c3CC[C@@H]12 | 2.6 µM | 5.31 | 1 µM | 1.8 µM | 1.9 µM |  | 
11 | CCOC(=O)c1cn(CC(=O)Nc2c(C(C)C)ccc3c2CC[C@H]2[C@](C)(C(=O)OC)CCC[C@]32C)nn1 | 15.4 µM | 3.97 | 21.3 µM | 22.9 µM | 16.1 µM |  | 
12 | COC(=O)[C@]1(C)CCC[C@]2(C)c3ccc(C(C)C)c(NC(=O)Cn4cc(-c5cccc(NC(C)=O)c5)nn4)c3CC[C@@H]12 | 10.1 µM | 4.39 | 5.9 µM | 3.9 µM | 1.5 µM |  | 
13 | COC(=O)[C@]1(C)CCC[C@]2(C)c3ccc(C(C)C)c(NC(=O)Cn4cc(-c5ccc(OC(F)(F)F)cc5)nn4)c3CC[C@@H]12 | 12.1 µM | 6.17 | 23.4 µM | 20.3 µM | 9.2 µM |  | 
14 | COC(=O)[C@]1(C)CCC[C@]2(C)c3ccc(C(C)C)c(NC(=O)Cn4cc(-c5cccc(F)c5)nn4)c3CC[C@@H]12 | > 100 µM | 5.34 | > 100 µM | 91.2 µM | 68.8 µM |  | 
15 | COC(=O)[C@]1(C)CCC[C@]2(C)c3ccc(C(C)C)c(NC(=O)Cn4cc(-c5ccc([N+](=O)[O-])cc5)nn4)c3CC[C@@H]12 | > 100 µM | 5.16 | > 100 µM | 77.3 µM | > 100 µM |  | 
16 | COC(=O)[C@]1(C)CCC[C@]2(C)c3ccc(C(C)C)c(NC(=O)Cn4cc(-c5ccc(OC)cc5)nn4)c3CC[C@@H]12 | 1.9 µM | 5.28 | 1.8 µM | 1.4 µM | 1.4 µM | Dose-dependent effect | >50%
17 | COC(=O)[C@]1(C)CCC[C@]2(C)c3ccc(C(C)C)c(NC(=O)Cn4cc(-c5cccc([N+](=O)[O-])c5)nn4)c3CC[C@@H]12 | > 100 µM | 5.13 | 87.5 µM | > 100 µM | 91.1 µM |  | 
18 | COC(=O)[C@]1(C)CCC[C@]2(C)c3ccc(C(C)C)c(NC(=O)CCl)c3CC[C@@H]12 | 71.2 µM |  | > 100 µM | 69.7 µM | 51.6 µM |  | 
19 | COC(=O)[C@]1(C)CCC[C@]2(C)c3ccc(C(C)C)c(NC(=O)Cn4cc(-c5cccs5)nn4)c3CC[C@@H]12 | > 100 µM | 4.98 | 57.1 µM | > 100 µM | > 100 µM |  | 
20 | COC(=O)[C@]1(C)CCC[C@]2(C)c3ccc(C(C)C)c(NC(=O)Cn4cc([Si](C)(C)C)nn4)c3CC[C@@H]12 | 94.3 µM | 6.04 | > 100 µM | 65.2 µM | > 100 µM |  | 
21 | COC(=O)[C@]1(C)CCC[C@]2(C)c3ccc(C(C)C)c(NC(=O)Cn4cc(-c5cc(OC)cc(OC)c5)nn4)c3CC[C@@H]12 | 5.2 µM | 5.24 | 1.4 µM | 3.3 µM | 8.9 µM |  | 
22 | COC(=O)[C@]1(C)CCC[C@]2(C)c3ccc(C(C)C)c(NC(=O)Cn4cc(-c5ccc6ccccc6c5)nn4)c3CC[C@@H]12 | 9.1 µM | 6.38 | 27 µM | 45.3 µM | 12.1 µM |  | 
23 | O=c1[nH]cc(F)c(=O)[nH]1 [FLUOROURACIL] | 13.7 µM |  | 24.5 µM | 20.8 µM | 5.2 µM |  | 
24 | COC(=O)[C@]1(C)CCC[C@]2(C)c3ccc(C(C)C)c(NC(=O)Cn4cc(-c5ccccc5F)nn4)c3CC[C@@H]12 | 8.7 µM | 5.36 | 10 µM | 15.2 µM | 19.4 µM |  | 
25 | CC(C)[C@]12O[C@H]1[C@@H]1O[C@@]13[C@@]1(C)CCC4=C(COC4=O)[C@@H]1C[C@@H]1O[C@@]13C2=O [TRIPTONIDE] | 0.02 µM |  | 0.03 µM |  | 0.03 µM |  | 
26 | COC(=O)[C@]1(C)CCC[C@]2(C)c3ccc(C(C)C)c(NC(=O)Cn4cc(-c5ccccn5)nn4)c3CC[C@@H]12 | > 100 µM | 4.05 | > 100 µM | > 100 µM | > 100 µM |  | 
27 | COC(=O)[C@]1(C)CCC[C@]2(C)c3ccc(C(C)C)c(NC(=O)Cn4cc(C5CC5)nn4)c3CC[C@@H]12 | 12.3 µM | 4.11 | 16.2 µM | 19.4 µM | 24.2 µM |  | 
28 | COC(=O)[C@]1(C)CCC[C@]2(C)c3ccc(C(C)C)c(NC(=O)Cn4cc(-c5ccccc5)nn4)c3CC[C@@H]12 | 3.4 µM | 5.2 | 3 µM | 4.8 µM | 3.7 µM |  | 
29 | COC(=O)[C@]1(C)CCC[C@]2(C)c3ccc(C(C)C)c(NC(=O)Cn4cc(CBr)nn4)c3CC[C@@H]12 | > 100 µM | 4.47 | 60 µM | > 100 µM | > 100 µM |  | 
30 | COC(=O)[C@]1(C)CCC[C@]2(C)c3ccc(C(C)C)c(NC(=O)Cn4cc(-c5ccncc5)nn4)c3CC[C@@H]12 | > 100 µM | 3.91 | > 100 µM | > 100 µM | > 100 µM |  | 
